Format in all cases: biochemical
The test system of test [1] is noradrenaline (NA) reuptake in synaptosomes. Briefly: Inhibition of 3H-NA reuptake in synaptosomes. The following applies: read-out: NA-uptake IC50. On the procedure: (§1) Compounds were tested for their ability to inhibit the reuptake of the monoamine neurotransmitters dopamine (DA) noradrenaline (NA) and serotonine (5-HT) in synaptosomes as described in WO 97/16451 (NeuroSearch A/S).
(§2) The test values are given as IC50 (the concentration (μM) of the test substance which inhibits the specific binding of ^3H-DA, ^3H-NA, or ^3H-5-HT by 50%).

Test [2] concerns dopamine (DA) reuptake in synaptosomes. Briefly: Inhibition of 3H-DA reuptake in synaptosomes. Particulars: read-out: DA-uptake IC50. On the procedure: as §1, §2
The test system of test [3] is serotonine (5-HT) reuptake in synaptosomes. The test is described as follows: Inhibition of 3H-5-HT reuptake in synaptosomes. The following applies: read-out: 5-HT-uptake IC50. As for the experimental part:
as §1, §2

This passage reports IC50 results from US20110015235A1, “NOVEL PHENYLETHYNYL DERIVATIVES OF 8-AZA-BICYCLO[3.2.1]OCTANE AND THEIR USE AS MONOAMINE NEUROT[…]-UPTAKE INHIBITORS” (NeuroSearch A/S, priority 2008, published 2011).

Counter-ions that a name gives are not always drawn.

Regarding `CN1[C@@H]2CC[C@H]1C[C@H](Oc1ccc(C#Cc3ccccc3)cc1)C2` [Compound C1, exo-8-Methyl-3-(4-phenylethynyl-phenoxy)-8-aza-bicyclo[3.2.1]octane fumaric acid salt], the IC50 in test [1] stood at 79 nM; in test [2], 24 nM; in test [3] it was 720 nM.

As a reminder, the IC50 is the concentration that gives 50% inhibition.
